Experimental data published in patent publication US9404081B2, “Pyruvate kinase activators for use in therapy” (AGIOS PHARMACEUTICALS, INC., priority 2011, dated 2016).

Legend:
Type in all cases: biochemical
[1] = molecular target: T1, PKR R532W (Homo sapiens, UniProt P30613, R532W); assay: PKR R532W Single Point Percent Activation Assay; conditions: read-out: Act, % 532W
Procedure, shortened: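 PKR R532W (100 ng/well) preincubated 60 min at RT with compound at 1 μM in Tris pH 7.5, KCl, MgCl2, DTT, BSA. Reaction started with ADP (0.36 mM), with PEP 0.1 mM, NADH 180 μM and LDH coupling; read at OD340, room temperature.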

[2] = molecular target: T2, PKR R510Q (Homo sapiens, UniProt P30613, R510Q); assay: PKR Mutant Assay (AC50), PKR R510Q
Procedure: (§1) • PKR or PKR mutant enzyme solution was diluted in assay buffer. • 2 μL of test compound was added into wells first, and then 180 μL reaction mix was added. • Reactions mixture with test compound was assembled except for ADP, and plates were stored for 60 minutes at room temperature. • 20 uL ADP was added to start reaction at room temperature and reaction progress was measured as changes in absorbance at 340 nm wavelength at room temperature.
(§2) Test Compound Preparation: • Test compound stock was made at 100× concentration in 100% DMSO (10 mM) • 1 to 3 dilutions were made for 11 points (i.e. 50 μl of first concentration added to 100 μl 100% DMSO to yield 3.33 mM, 50 μl of this added to 100 μl DMSO to yield 1.11 mM, and so forth) • 1 to 100 dilution into assay (2 μl in 200 μl) yielded starting concentration of 100 μM, decreasing 3 fold for 11 points. Assay Buffer: 100 mM KCl, 50 mM Tris 7.5, 5 mM MgCl2, 1 mM DTT, 0.03% BSA Reaction Mixture: PKR mutant enzyme: 80-400 ng/well; ADP: 0.22-1.65 mM; PEP: 0.1-0.5 mM; NADH: 180 uM; LDH: 0.5 units (Sigma#59023); DTT: 1 mM; BSA: 0.03%.

[3] = molecular target: PKR T384W (Homo sapiens, UniProt P30613, T384W); assay: PKR T384W Single Point Percent Activation Assay; conditions: read-out: Act. % 384W
Procedure, shortened: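 Soluble PKR T384W (300 ng/well) preincubated 60 min at RT with 1 μM compound in 50 mM Tris pH 7.5, 100 mM KCl, 5 mM MgCl2, 1 mM DTT, 0.03% BSA. Started with ADP (0.08 mM); PEP 0.23 mM, LDH-coupled NADH (180 μM) consumption read at OD340, room temperature.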

[4] = molecular target: T2, PKR R510Q; assay: PKR R510Q Single Point Percent Activation Assay; conditions: read-out: Act. % 510Q
Procedure, shortened: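 Test compound was used at a single concentration of 1 μM and preincubated 60 min at room temperature with PKR R510Q (40 ng/well). The buffer was 50 mM Tris pH 7.5, 100 mM KCl, 5 mM MgCl2, 1 mM DTT and 0.03% BSA. The reaction was started with 0.2 mM ADP and read as OD340 in an LDH-coupled system (0.11 mM PEP, 180 μM NADH).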

[5] = molecular target: PKR wt (Homo sapiens, UniProt P30613); assay: PKR WT Single Point Percent Activation Assay
Procedure, shortened: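 Single concentration of 1 μM compound preincubated 60 min at RT with PKR wt (100 ng/well) in Tris pH 7.5, KCl, MgCl2, DTT, BSA. Reaction started with ADP (0.48 mM final) with PEP 0.15 mM, coupled LDH/NADH (180 μM), read at OD340, room temperature; given as percent activation.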

[6] = molecular target: T1, PKR R532W; assay: PKR Mutant Assay (AC50), PKR R532W
Procedure: as §1, §2

[7] = molecular target: wild type PKR (Homo sapiens, UniProt P30613); assay: PKR Mutant Assay (AC50), wild type PKR; conditions: read-out: PKR WT AC50
Procedure: as §1, §2

[8] = molecular target: PKR R479H (Homo sapiens, UniProt P30613, R479H); assay: PKR Mutant Assay (AC50), PKR R479H
Procedure: as §1, §2

[9] = molecular target: PKR T384W (Homo sapiens, UniProt P30613); assay: PKR Mutant Assay (AC50), PKR T384W
Procedure: as §1, §2

[10] = molecular target: PKR G364D (Homo sapiens, UniProt P30613, G364D); assay: PKR Mutant Assay (AC50), PKR G364D
Procedure: as §1, §2

Chain of PKR T384W (Homo sapiens, UniProt P30613, T384W) (P30613 whole entry T384W): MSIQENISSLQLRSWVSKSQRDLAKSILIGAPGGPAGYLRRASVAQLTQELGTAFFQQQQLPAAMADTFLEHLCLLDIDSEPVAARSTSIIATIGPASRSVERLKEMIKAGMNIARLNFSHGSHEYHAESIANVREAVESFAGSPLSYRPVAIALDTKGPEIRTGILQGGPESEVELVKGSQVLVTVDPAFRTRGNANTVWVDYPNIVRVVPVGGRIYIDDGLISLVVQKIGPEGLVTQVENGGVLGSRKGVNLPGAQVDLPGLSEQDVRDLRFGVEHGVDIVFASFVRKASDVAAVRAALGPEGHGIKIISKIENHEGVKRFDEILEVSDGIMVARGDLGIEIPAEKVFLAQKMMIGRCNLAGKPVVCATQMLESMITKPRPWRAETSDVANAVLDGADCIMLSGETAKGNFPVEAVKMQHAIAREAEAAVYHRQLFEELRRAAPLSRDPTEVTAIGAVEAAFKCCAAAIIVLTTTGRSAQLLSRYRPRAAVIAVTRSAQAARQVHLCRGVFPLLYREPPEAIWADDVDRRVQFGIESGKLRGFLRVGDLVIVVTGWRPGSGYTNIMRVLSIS
Chain of PKR T384W (Homo sapiens, UniProt P30613) (P30613 whole entry T384M): as the sequence (P30613 whole entry T384W) above, with W384M counted along it
T2 sequence (P30613 whole entry R510Q): as the sequence (P30613 whole entry T384W) above, with W384T, R510Q counted along it
Chain of PKR R479H (P30613 whole entry R479H): as the sequence (P30613 whole entry T384W) above, with W384T, R479H counted along it
T1 sequence (P30613 whole entry R532W): as the sequence (P30613 whole entry T384W) above, with W384T, R532W counted along it
Chain of PKR wt (P30613 whole entry): as the sequence (P30613 whole entry T384W) above, with W384T counted along it
Chain of wild type PKR (P30613 whole entry): as the sequence (P30613 whole entry T384W) above, with W384T counted along it
Chain of PKR G364D (P30613 whole entry G364D): as the sequence (P30613 whole entry T384W) above, with G364D, W384T counted along it

SMILES | activation at 1 µM [1] [%] | AC50 [2] [nM] | activation at 1 µM [3] [%] | activation at 1 µM [4] [%] | activation at 1 µM [5] [%] | AC50 [6] [nM] | AC50 [7] [nM] | AC50 [8] [nM] | AC50 [9] [nM] | AC50 [10] [nM]
CC1CN(Cc2ccccc2)CC(C)N1C(=O)c1ccc(NS(=O)(=O)c2cccc3cccnc23)cc1 (stereo not shown) | 101 to 500 | < 100 | 101 to 500 | 101 to 500 | 101 to 500 |  |  |  |  | 
CC(C)OC(=O)N1[C@H](C)CN(C(=O)c2ccc(NS(=O)(=O)c3cccc4cccnc34)cc2)C[C@@H]1C | 101 to 500 |  | 101 to 500 | 101 to 500 | 101 to 500 | > 500 | < 100 |  |  | 
COc1ccccc1N1CCN(C(=O)c2ccc(NS(=O)(=O)c3cccc4cccnc34)cc2)C(C)C1 (stereo not shown) | 101 to 500 | > 500 | 101 to 500 | 101 to 500 | 101 to 500 | < 100 | < 100 | < 100 | < 100 | 101 to 500

Other lines, results leading:

activation at 1 µM [1] [%] | AC50 [2] [nM] | activation at 1 µM [3] [%] | activation at 1 µM [4] [%] | activation at 1 µM [5] [%] | AC50 [6] [nM] | AC50 [7] [nM] | AC50 [8] [nM] | AC50 [9] [nM] | AC50 [10] [nM] | SMILES
101 to 500 |  | 101 to 500 | 1 to 100 | 101 to 500 | > 500 | > 500 |  |  |  | CCOC(=O)N1CCN(C(=O)c2ccc(NS(=O)(=O)c3cccc4cccnc34)cc2)[C@@H](C)C1
101 to 500 | > 500 | 101 to 500 | 101 to 500 | 101 to 500 | < 100 | < 100 |  |  |  | CC(C)OC(=O)N1CCN(C(=O)c2ccc(NS(=O)(=O)c3cccc4cccnc34)cc2)[C@H](C)C1
1 to 100 | 101 to 500 | 101 to 500 | 101 to 500 | 101 to 500 | < 100 | < 100 | < 100 | < 100 |  | O=C(c1ccc(NS(=O)(=O)c2cccc3cccnc23)cc1)N1CCN(C[C@H]2CCOC2)CC1
1 to 100 | 101 to 500 | 101 to 500 | 101 to 500 | 1 to 100 | < 100 | < 100 | < 100 | < 100 |  | O=C(c1ccc(NS(=O)(=O)c2cccc3cccnc23)cc1)N1CCN(C[C@@H]2CCOC2)CC1
